From patent US20200003762A1, “Diagnostics Platform for Mitochondrial Dysfunctions/Diseases” (BioElectron Technology Corporation, priority 2018, published 2020)

Key:
[1] = tested on: NADH:ubiquinone oxidoreductase; settings: cited from earlier work
[2] = tested on: mitochondrial FIFO ATP synthase; settings: cited from earlier work
HL-1 = settings: cited from earlier work
[3] = tested on: brush-border membrane vesicles; settings: cited from earlier work
[4] = tested on: monocarboxylic acid transport; settings: cited from earlier work
[5] = tested on: β-cell apical anion exchange; settings: read-out: block β-cell apical anion exchange (IC50); cited from earlier work
Y79 = assay: Exemplary training dataset: dysfunction D1 in Y79 cultures exposed to inhibitor A8674; assay type: cell-based, Human
Text: or more simply by Yt1 . . . i,d1 . . . j,c1 . . . l or still as a vector Y of the form [y1, y2, . . . , yi*j*l]. Thus, a partial excerpt from an exemplary training data derived from input tensor X for system 100 may be given by Table 7 below:
In the above training dataset, each entry of column Y is a value in the vector Y discussed above. Each entry q of column X(qk) with a hat “^” denotes a vector and is an entry in input tensor X, and is a vector of measured quantities [q1, q2, . . . , qk] of the analytes in the biomarker measurement such as those shown in Tables 3-5. In other words, the training dataset consists of measured vectors q at indices i,j,l of tensor X per above explanation. Human retinoblastoma (Y79) from Table 1 above is used as the cell-line from which in vitro cultures are grown.
Note that rows 1-6 correspond to the scenario when no inhibitor was exposed (zero/O state), and unsurprisingly column Y indicates a 0 or a 0% probability that dysfunction D1 is present in the corresponding culture.

apoptosis = settings: cited from earlier work
[6] = target: human porphobilinogen synthase (PBGS; ALAD) (Homo sapiens, UniProt P13716); settings: allosteric; cited from earlier work
mitochondrial ATPase = settings: cited from earlier work
FIFO = settings: cited from earlier work
isolated rat hearts = settings: during ischemia; cited from earlier work
ferroptosis = settings: cited from earlier work
[7] = tested on: mitochondrial superoxide production; settings: cited from earlier work
[8] = tested on: plasma and mitochondrial membranes; settings: cited from earlier work
Mg2+-ATPase = settings: cited from earlier work
background K+ current = settings: cited from earlier work
β-amyloid = settings: cited from earlier work
[9] = target: mitochondrial outer membrane protein mitoNEET (Homo sapiens, UniProt Q9NZ45); settings: cited from earlier work
PPARγ = PPARγ (Homo sapiens, UniProt P37231); settings: cited from earlier work
[10] = tested on: mice models of diabetes II; settings: cited from earlier work
ADP ribosylation = settings: cited from earlier work
neoplastic cells = settings: by interfering with hexokinase and disrupting uncoupler-stimulated mitochondrial electron transport; cited from earlier work
[11] = tested on: NADH-cytochrome C reductase; settings: mitochondria preparations of S. cerevisiae; cited from earlier work
[12] = tested on: succinate cythochrome C reductase; settings: mitochondria preparations of S. cerevisiae; cited from earlier work
NADH oxidase = settings: mitochondria preparations of S. cerevisiae; cited from earlier work
succinate oxidase = settings: mitochondria preparations of S. cerevisiae; cited from earlier work

Sequence of human porphobilinogen synthase (PBGS; ALAD) (P13716 whole entry): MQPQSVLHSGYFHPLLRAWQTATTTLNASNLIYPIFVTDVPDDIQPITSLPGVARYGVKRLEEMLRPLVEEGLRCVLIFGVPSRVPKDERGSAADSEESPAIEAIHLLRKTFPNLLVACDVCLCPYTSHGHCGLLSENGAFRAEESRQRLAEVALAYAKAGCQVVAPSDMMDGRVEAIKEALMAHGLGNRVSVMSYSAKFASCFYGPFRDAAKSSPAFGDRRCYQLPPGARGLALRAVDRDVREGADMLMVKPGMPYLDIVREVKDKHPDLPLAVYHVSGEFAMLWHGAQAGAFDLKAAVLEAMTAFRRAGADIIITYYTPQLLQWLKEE
Sequence of PPARγ (P37231 whole entry, species assumed): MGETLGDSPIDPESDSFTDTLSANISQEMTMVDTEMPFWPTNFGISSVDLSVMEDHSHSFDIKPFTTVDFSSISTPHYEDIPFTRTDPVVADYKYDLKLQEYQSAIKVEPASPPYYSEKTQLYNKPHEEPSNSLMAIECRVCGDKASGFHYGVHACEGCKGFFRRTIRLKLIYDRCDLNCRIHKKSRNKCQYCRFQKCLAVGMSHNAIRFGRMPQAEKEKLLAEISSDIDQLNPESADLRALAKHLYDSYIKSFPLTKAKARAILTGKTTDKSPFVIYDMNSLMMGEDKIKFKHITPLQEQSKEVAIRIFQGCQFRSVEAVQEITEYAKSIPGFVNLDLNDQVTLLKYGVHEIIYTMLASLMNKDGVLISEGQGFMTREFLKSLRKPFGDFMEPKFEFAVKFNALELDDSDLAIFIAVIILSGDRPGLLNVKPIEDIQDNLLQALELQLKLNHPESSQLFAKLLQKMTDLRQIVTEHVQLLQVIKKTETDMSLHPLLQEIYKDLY
Sequence of mitochondrial outer membrane protein mitoNEET (Q9NZ45 whole entry): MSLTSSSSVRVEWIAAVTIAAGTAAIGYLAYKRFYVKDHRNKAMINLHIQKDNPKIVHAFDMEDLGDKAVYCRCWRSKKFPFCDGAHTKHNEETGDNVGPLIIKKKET

## C=C(C)[C@H]1Cc2c(ccc3c2O[C@@H]2COc4cc(OC)c(OC)cc4[C@@H]2C3=O)O1 [R8875, Rotenone]
[1]
  mitochondrial electron transport at NADH:ubiquinone oxidoreductase: Inhibitor of mitochondrial

## O=C(Oc1cc(S(=O)(=O)c2ccccc2)ccc1[N+](=O)[O-])c1ccc(Cl)cc1 [SML1122, BTB06584]
[2]
  ATP hydrolase activity of mitochondrial FIFO ATP synthase: BTB06584 inhibits the ATP
HL-1
  effect on mitochondrial membrane potential: has no effect on oxygen
  effect on oxygen consumption: has no effect on oxygen

## N#CC(C#N)=NNc1cccc(Cl)c1 [C2759, Carbonyl cyanide 3-chlorophenylhydrazone]
[3]
  Cl-/Cl- exchange activities: hepatic lipase and partially
  pH gradient-activated Cl- uptake: hepatic lipase and partially

## N#CC(=Cc1ccc(O)cc1)C(=O)O [C2020, α-Cyano-4-hydroxycinnamic acid]
[4]
  monocarboxylic acid transport, including lactate and pyruvate transport: Specific inhibitor of
[5]
  IC50: 2.4 mM

## Antimycin A from Streptomyces sp. [A8674]
Y79; 1 minute, 1 uL
  Y (probability that dysfunction D1 is present): 0%
Y79; 30 minutes, 5 uL
  Y (probability that dysfunction D1 is present): 100% or 1
Y79; 1 hours, 1 uL
  Y (probability that dysfunction D1 is present): 100% or 1
Y79; 5 hours, 1 uL
  Y (probability that dysfunction D1 is present): 100% or 1
Y79; 10 hours, 1 uL
  Y (probability that dysfunction D1 is present): 100% or 1
Y79; 2 days, 1 uL
  Y (probability that dysfunction D1 is present): 100% or 1
apoptosis
  apoptosis: complex III. Induces apoptosis.

## ML-3H2 [M2324]
[6]
  inhibition of human porphobilinogen synthase: hexamer-stabilizing inhibitor

## CC[C@H]1/C=C/C=C/C[C@@H](C)[C@H](O)[C@@](C)(O)C(=O)[C@@H](C)[C@H](O)[C@@H](C)C(=O)[C@@H](C)[C@H](O)[C@@H](C)/C=C/C(=O)O[C@@H]2[C@H](C)[C@H](CC1)O[C@]1(CC[C@H](C)[C@H](C[C@@H](C)O)O1)[C@H]2C [compound 04876, Oligomycin from Streptomyces diastatochromogenes]
Mitochondrial ATPase
  mitochondrial ATPase and phosphoryl group transfer: Macrolide antibiotic; inhibits

## CC1(C)Oc2ccc(S(=O)(=O)N3CCCCC3)cc2[C@@H](N(Cc2ncc[nH]2)c2ccc(Cl)cc2)[C@@H]1O.Cl [BM0017, BMS-199264 hydrochloride]
[2]
  ATP hydrolase activity of mitochondrial FIFO ATP synthase: Potently inhibits the ATP
FIFO
  effect on the ATP synthase function of FIFO: 199624 has no effect on the ATP
Isolated rat hearts
  depletion of ATP levels: blocks depletion of ATP levels,

## Cc1c(C)c(O)c(CC[C@](C)(O)CCC[C@H](C)CCC[C@H](C)CCCC(C)C)c(C)c1O [vitamin E hydroquinone]
ferroptosis
  inhibition of ferroptosis: potent inhibitor

## N#CC(C#N)=NNc1ccc(OC(F)(F)F)cc1 [C2920, Carbonyl cyanide 4-(trifluoromethoxy)phenylhydrazone]
[7]
  effect of selective glutamate agonist NMDA on mitochondrial superoxide production: amyloid production, and mimics
[8]
  depolarizing plasma and mitochondrial membranes: depolarizing plasma and
Mg2+-ATPase
  Mg2+-ATPase activity: [Na+]. FCCP stimulates Mg2+-
Background K+ current
  background K+ current: It also is reported to inhibit
  inward current: induce a small inward current,
β-amyloid
  β-amyloid production: ATPase activity, inhibits β-

## CCOC(=O)N1CCC(NC(=S)Nc2cc(Cl)cc(Cl)c2)CC1 [SML1280, TT01001]
[9]
  binding to mitoNEET: ligands that binds to mitoNEET
PPARγ
  PPARγ activation: without PPARγ activation.
[10]; mice models of diabetes II
  glucose intolerance: TT01001 improves hyperglycemia,
  hyperglycemia: TT01001 improves hyperglycemia,
  hyperlipidemia: TT01001 improves hyperglycemia,
[10]; mouse, in vivo
  pioglitazone associated weight gain: anti-diabetic effects without

## m-Iodobenzyl-guanidine hemisulfate salt [I9890]
ADP ribosylation
  ADP ribosylation: Antitumor agent which inhibits

## O=C(O)c1nn(Cc2ccc(Cl)cc2Cl)c2ccccc12 [L4900, Lonidamine]
Neoplastic cells
  energy metabolism of neoplastic cells: Inhibits the energy metabolism

## O=[N+]([O-])c1c(Cl)cccc1-c1c[nH]cc1Cl [P8861, Pyrrolnitrin from Pseudomonas cepacia]
[11]
  NADH-cytochrome C reductase: inhibited succinate oxidase,
[12]
  succinate cythochrome C reductase: inhibited succinate oxidase,
NADH oxidase
  NADH oxidase: inhibited succinate oxidase,
Succinate oxidase
  succinate oxidase: inhibited succinate oxidase,
